Source: patent publication US11045510B2, “Combination of aqueous extracts of watercress and nasturtium and ATP for use in the treatment of alopecia” (PIERRE FABRE DERMO-COSMETIQUE, priority 2017, dated 2021)

Key:
[1] = test system: hepatocyte growth factor (HGF) released by dermal papilla cells; assay: HGF release by dermal papilla cells derived from human hair follicles; assay type: cell-based; conditions: ATP 30 μM
Experimental: (§1) The goal of this study is to evaluate the effects of the combination of an aqueous extract of watercress and of an aqueous extract of Indian cress, combined with ATP on the release of 2 anagen phase markers, hepatocyte growth factor (HGF) and keratinocyte growth factor (KGF), released by dermal papilla cells. These two growth factors have a stimulatory activity on hair growth by activating specific signalling pathways.
(§2) The studies were carried out on dermal papilla cells derived from human hair follicles from three different donors. The cells are seeded in 24-well plates and cultured for 24 h with the necessary supplements. The cells are then treated for 24 h with the products, i.e., either with ATP (30 μM), with Cressatine®, i.e., an aqueous extract of watercress and an aqueous extract of Indian cress (140 μg/ml), or with the combination ATP-Cressatine® at the same concentrations as before. The supernatants were collected for subsequent analysis of markers HGF and KGF. HGF is measured using set HCCBP1MAG-58K from EMD Millipore and KGF is measured by using set KGF/FGF-7 DuoSet ELISA DY251 from R&D Systems.

[2] = test system: keratinocyte growth factor (KGF) released by dermal papilla cells; assay: KGF release by dermal papilla cells derived from human hair follicles; assay type: cell-based; conditions: ATP 30 μM
Experimental: as §1, §2

[3] = cells treated for 24 h, Cressatine 140 μg/ml, combination at same concentrations, average of 3 donors

Nc1ncnc2c1ncn2[C@@H]1O[C@H](COP(=O)(O)OP(=O)(O)OP(=O)(O)O)[C@@H](O)[C@H]1O [ATP, adenosine 5′-triphosphate]
HGF [1, 3]: 92 pg/mL
modulation of the production of HGF (in words) ([1]; versus control, 24 h): does not significantly modulate
KGF [2, 3]: 37 pg/mL
higher secretion of KGF ([2]; versus control, 24 h): 50%
